Experimental data published in ChEMBL document CHEMBL1140672, “Design, synthesis, and evaluation of isoindolinone-hydroxamic acid derivatives as histone deacetylase (HDAC) inhibitors” (Bioorg Med Chem Lett, 2007).
Calls of active or inactive are those of the source. No cut-off for these calls is given here.

Experiments:
Histone deacetylase 1 = Histone deacetylase 1 (Homo sapiens, UniProt Q13547); assay: Inhibition of human HDAC1
[1] = target: T1, Protein deacetylase HDAC6 (Homo sapiens, UniProt Q9UBN7); assay: Inhibition of human HDAC6
T1 sequence (Q9UBN7 whole entry): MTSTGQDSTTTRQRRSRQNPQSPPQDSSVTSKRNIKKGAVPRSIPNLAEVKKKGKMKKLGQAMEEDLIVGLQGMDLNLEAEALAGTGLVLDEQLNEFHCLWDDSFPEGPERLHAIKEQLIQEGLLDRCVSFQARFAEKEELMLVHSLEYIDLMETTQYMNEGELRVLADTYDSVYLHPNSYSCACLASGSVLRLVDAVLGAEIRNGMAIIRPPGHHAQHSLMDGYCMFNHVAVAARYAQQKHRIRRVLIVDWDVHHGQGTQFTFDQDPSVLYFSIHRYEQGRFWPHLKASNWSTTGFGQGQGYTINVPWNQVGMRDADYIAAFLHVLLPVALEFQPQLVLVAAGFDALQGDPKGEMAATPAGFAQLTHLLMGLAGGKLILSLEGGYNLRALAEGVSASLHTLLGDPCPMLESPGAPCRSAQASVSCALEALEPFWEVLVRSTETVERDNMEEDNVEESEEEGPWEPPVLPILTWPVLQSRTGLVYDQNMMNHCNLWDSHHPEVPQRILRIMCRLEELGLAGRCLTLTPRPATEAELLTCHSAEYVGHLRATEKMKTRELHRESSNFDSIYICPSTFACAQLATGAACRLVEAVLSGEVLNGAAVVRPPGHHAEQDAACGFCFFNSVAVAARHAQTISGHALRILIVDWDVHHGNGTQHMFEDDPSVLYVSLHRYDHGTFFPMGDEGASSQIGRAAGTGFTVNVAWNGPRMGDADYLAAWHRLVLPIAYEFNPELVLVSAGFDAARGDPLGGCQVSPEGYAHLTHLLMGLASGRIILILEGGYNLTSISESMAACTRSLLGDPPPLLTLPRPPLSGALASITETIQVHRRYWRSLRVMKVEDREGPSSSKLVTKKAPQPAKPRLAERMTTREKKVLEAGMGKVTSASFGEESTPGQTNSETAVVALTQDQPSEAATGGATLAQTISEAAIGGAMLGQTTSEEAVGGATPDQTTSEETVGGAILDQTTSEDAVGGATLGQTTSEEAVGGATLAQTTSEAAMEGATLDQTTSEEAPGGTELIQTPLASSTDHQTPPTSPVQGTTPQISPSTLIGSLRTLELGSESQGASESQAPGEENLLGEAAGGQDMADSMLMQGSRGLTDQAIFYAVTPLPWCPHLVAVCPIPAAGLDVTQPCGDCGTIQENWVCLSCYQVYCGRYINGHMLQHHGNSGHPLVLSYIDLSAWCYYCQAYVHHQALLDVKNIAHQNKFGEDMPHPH

Histone deacetylase 4 = Histone deacetylase 4 (Homo sapiens, UniProt P56524); assay: Inhibition of human HDAC4
Sequence of Histone deacetylase 4 (P56524 whole entry): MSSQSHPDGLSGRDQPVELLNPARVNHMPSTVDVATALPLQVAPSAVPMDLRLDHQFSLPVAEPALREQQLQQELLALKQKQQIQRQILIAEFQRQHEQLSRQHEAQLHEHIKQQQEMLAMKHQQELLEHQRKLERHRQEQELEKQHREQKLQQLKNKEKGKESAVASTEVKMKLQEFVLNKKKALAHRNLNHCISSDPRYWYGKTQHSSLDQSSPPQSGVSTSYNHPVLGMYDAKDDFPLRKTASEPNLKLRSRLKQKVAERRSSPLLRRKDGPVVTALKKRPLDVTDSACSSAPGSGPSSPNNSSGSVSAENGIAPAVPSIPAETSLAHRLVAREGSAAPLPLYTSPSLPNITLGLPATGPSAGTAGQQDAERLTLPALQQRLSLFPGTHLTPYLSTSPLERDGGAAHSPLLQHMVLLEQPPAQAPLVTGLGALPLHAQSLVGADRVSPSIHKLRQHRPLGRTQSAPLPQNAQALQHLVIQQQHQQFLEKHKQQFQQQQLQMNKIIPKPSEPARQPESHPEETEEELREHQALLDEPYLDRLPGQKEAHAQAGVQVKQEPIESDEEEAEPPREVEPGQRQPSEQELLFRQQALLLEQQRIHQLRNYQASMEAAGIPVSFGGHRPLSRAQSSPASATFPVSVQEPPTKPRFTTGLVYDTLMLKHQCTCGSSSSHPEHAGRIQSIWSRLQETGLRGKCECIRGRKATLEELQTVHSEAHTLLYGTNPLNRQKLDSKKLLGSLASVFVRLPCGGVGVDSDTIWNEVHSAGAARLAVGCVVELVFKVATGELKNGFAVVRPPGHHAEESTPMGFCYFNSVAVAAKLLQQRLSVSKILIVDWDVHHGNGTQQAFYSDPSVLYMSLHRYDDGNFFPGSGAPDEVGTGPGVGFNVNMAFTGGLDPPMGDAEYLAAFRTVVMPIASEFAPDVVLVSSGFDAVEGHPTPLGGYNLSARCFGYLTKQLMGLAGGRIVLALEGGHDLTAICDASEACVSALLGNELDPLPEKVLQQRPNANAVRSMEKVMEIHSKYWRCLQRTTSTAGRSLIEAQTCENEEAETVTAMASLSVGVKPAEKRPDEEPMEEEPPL

PANC-1 [2] = assay: Increase in p27kip1 gene expression in PANC1 cells after 24 hrs relative to control; assay type: functional, cell-based; conditions: Homo sapiens
PANC-1 [3] = assay: Increase in p27kip1 gene expression in PANC1 cells after 48 hrs relative to control; assay type: functional, cell-based; conditions: Homo sapiens
PANC-1 [4] = assay: Increase in p21WAF1/CIP1 gene expression in PANC1 cells 1 uM after 48 hrs relative to control; assay type: functional, cell-based; conditions: Homo sapiens
PANC-1 [5] = assay: Increase in p21WAF1/CIP1 gene expression in PANC1 cells at 0.1 uM after 48 hrs relative to control; assay type: functional, cell-based; conditions: Homo sapiens
PANC-1 [6] = assay: Antiproliferative activity against human PANC1 cells; assay type: functional, cell-based
PT-45 = assay: Antiproliferative activity against human drug-resistant PT45 cells; assay type: functional, cell-based
PANC-1 [7] = assay: Increase in p21WAF1/CIP1 gene expression in PANC1 cells after 24 hrs relative to control; assay type: functional, cell-based; conditions: Homo sapiens

Sequence of Histone deacetylase 1 (Q13547 whole entry): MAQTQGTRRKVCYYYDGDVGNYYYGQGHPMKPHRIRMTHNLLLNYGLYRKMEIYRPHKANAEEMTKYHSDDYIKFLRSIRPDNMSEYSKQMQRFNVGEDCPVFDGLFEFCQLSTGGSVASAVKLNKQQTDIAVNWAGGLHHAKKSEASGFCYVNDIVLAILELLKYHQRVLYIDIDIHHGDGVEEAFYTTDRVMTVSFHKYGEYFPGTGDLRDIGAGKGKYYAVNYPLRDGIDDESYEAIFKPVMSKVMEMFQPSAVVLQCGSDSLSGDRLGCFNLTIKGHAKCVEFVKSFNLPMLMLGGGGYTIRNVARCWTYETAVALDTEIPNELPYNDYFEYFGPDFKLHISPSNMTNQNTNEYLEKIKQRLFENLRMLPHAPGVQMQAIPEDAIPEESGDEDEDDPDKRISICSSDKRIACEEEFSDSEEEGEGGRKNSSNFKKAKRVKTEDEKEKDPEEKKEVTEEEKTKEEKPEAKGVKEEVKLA

Compound | IC50 (Histone deacetylase 1) | IC50 [1] | IC50 (Histone deacetylase 4) | IC50 (PANC-1 [6]) | Activity (PANC-1 [2]) | Activity (PANC-1 [3]) | Activity (PANC-1 [4]) | Activity (PANC-1 [5]) | IC50 (PT-45) | Activity (PANC-1 [7])
O=C(/C=C/c1ccc2c(c1)C(=O)N(Cc1ccc(-c3ccncc3)cc1)C2)NO | 3.3 µM | 15 µM | 2.1 µM |  |  |  |  |  |  | 
CC(C)(C)c1ccc(CN2Cc3ccc(/C=C/C(=O)NO)cc3C2=O)cc1 | 0.23 µM | 0.99 µM | 0.18 µM |  |  |  |  |  |  | 
O=C(/C=C/c1ccc2c(c1)C(=O)N(Cc1ccc(-c3cccnc3)cc1)C2)NO | 0.092 µM | 0.28 µM | 0.056 µM | 0.035 µM | inactive | inactive | Active | Active | 0.2 µM | 
O=C(CCCCCCC(=O)Nc1ccccc1)NO |  |  |  |  | inactive | inactive |  | Active |  | Active

Now from value to compound, other results behind:

IC50 (Histone deacetylase 1) | IC50 [1] | IC50 (Histone deacetylase 4) | IC50 (PANC-1 [6]) | Compound | Activity (PANC-1 [2]) | Activity (PANC-1 [3]) | Activity (PANC-1 [4]) | Activity (PANC-1 [5]) | IC50 (PT-45) | Activity (PANC-1 [7])
0.22 µM | 0.75 µM | 0.098 µM | 0.15 µM | O=C(/C=C/c1ccc2c(c1)C(=O)N(Cc1ccc(-c3ccccc3)cc1)C2)NO |  |  |  |  | 0.3 µM | 
0.25 µM | 0.23 µM | 0.22 µM |  | O=C(/C=C/c1ccc2c(c1)C(=O)N(Cc1ccccc1)C2)NO |  |  |  |  |  | 
